The supplement of paper PMC10949913

Tests used:
Settings in all cases: 48 h
CU-ACC1 [1] = assay: AC50 viability; higher = less potent
Outline: (§1)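 Three adrenocortical carcinoma cell lines were plated in 1,536-well plates at 500–1,000 cells/well in 5 µL medium, and 23 nL of each library compound was added at 11 concentrations. After 48 h, CellTiter-Glo was applied for 15 minutes at room temperature before luminescence was read. Each plate's signals were normalised to vehicle and empty-well controls. AC50 and area under the curve were taken from fitted concentration-response curves, with only inhibitory or non-responding curve classes retained.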

CU-ACC2 [2] = assay: AC50 viability; higher = less potent
Outline: as §1

NCI-H295R [3] = assay: AC50 viability; higher = less potent
Outline: as §1

CU-ACC1 [4] = assay: area under concentration-response curve (viability) (AUC (a.u.)); higher = less active
Outline: as §1

CU-ACC2 [5] = assay: as above
Outline: as §1

NCI-H295R [6] = assay: as above
Outline: as §1

Work on Cc1ccc([S+](=O)([O-])Nc2cc(C(F)(F)F)ccc2C(=O)Nc2nc(-c3ccccc3)cs2)cc1 yielded an AC50 viability (CU-ACC1 [1]) of 10.5 µM, an AC50 viability (CU-ACC2 [2]) of 8.33 µM and an AC50 viability (NCI-H295R [3]) of 8.33 µM. For the same compound, the “area under concentration-response curve” value (CU-ACC1 [4]) was 436, the “area under concentration-response curve” value (CU-ACC2 [5]) was 499 and the “area under concentration-response curve” value (NCI-H295R [6]) was 479.

Compound C=CC(=O)Nc1cc2c(Nc3ccc(F)c(Cl)c3)ncnc2cc1C#CC(C)(C)N1CCN(C)CC1 has an AC50 viability (CU-ACC1 [1]) of 10.5 µM, an AC50 viability (CU-ACC2 [2]) of 7.42 µM and an AC50 viability (NCI-H295R [3]) of 7.42 µM. The “area under concentration-response curve” value (CU-ACC1 [4]) was 307, the “area under concentration-response curve” value (CU-ACC2 [5]) was 520 and the “area under concentration-response curve” value (NCI-H295R [6]) was 477.

For Fc1cc(-c2cccc3ncc(-c4cnn(C5CCNCC5)c4)nc23)cc(F)c1CN1CCOCC1, the AC50 viability (CU-ACC1 [1]) was 11.8 µM, the AC50 viability (CU-ACC2 [2]) was 13.2 µM and the AC50 viability (NCI-H295R [3]) was 8.33 µM. The “area under concentration-response curve” value (CU-ACC1 [4]) was 390, the “area under concentration-response curve” value (CU-ACC2 [5]) was 437 and the “area under concentration-response curve” value (NCI-H295R [6]) was 428.

COc1cc2c(NC3CCN(CC4CCCCC4)CC3)nc(N3CCCN(C(C)C)CC3)nc2cc1OCCCN1CCCCC1 showed an AC50 viability (CU-ACC1 [1]) of 20.9 µM, an AC50 viability (CU-ACC2 [2]) of 10.5 µM and an AC50 viability (NCI-H295R [3]) of 16.6 µM. For the same compound, the “area under concentration-response curve” value (CU-ACC1 [4]) was 426, the “area under concentration-response curve” value (CU-ACC2 [5]) was 485 and the “area under concentration-response curve” value (NCI-H295R [6]) was 449.

CC(O)(C#Cc1ccc2c(c1)N(c1nc(N)ncc1Cl)CC2)c1nccs1 (configuration not stated) showed an AC50 viability (CU-ACC1 [1]) of 14.8 µM, an AC50 viability (CU-ACC2 [2]) of 18.6 µM and an AC50 viability (NCI-H295R [3]) of 16.6 µM. The “area under concentration-response curve” value (CU-ACC1 [4]) was 494, the “area under concentration-response curve” value (CU-ACC2 [5]) was 560 and the “area under concentration-response curve” value (NCI-H295R [6]) was 507.

For O=C(c1ccc(F)c(F)c1Nc1ccc(I)cc1F)N1CC(O)([C@@H]2CCCCN2)C1, the AC50 viability (CU-ACC1 [1]) was 6.61 µM, the AC50 viability (CU-ACC2 [2]) was 3.32 µM and the AC50 viability (NCI-H295R [3]) was 10.5 µM. For the same compound, the “area under concentration-response curve” value (CU-ACC1 [4]) was 308, the “area under concentration-response curve” value (CU-ACC2 [5]) was 299 and the “area under concentration-response curve” value (NCI-H295R [6]) was 371.

CNC(=O)c1ccc(Nc2ncc(C(F)(F)F)c(NCc3nccnc3N(C)[S+](C)(=O)[O-])n2)cc1 gave an AC50 viability (CU-ACC1 [1]) of 3.32 µM, an AC50 viability (CU-ACC2 [2]) of 1.86 µM and an AC50 viability (NCI-H295R [3]) of 3.32 µM. For the same compound, the “area under concentration-response curve” value (CU-ACC1 [4]) was 354, the “area under concentration-response curve” value (CU-ACC2 [5]) was 336 and the “area under concentration-response curve” value (NCI-H295R [6]) was 353.

Nc1cc(C(F)(F)F)c(-c2cc(N3CCOCC3)nc(N3CCOCC3)n2)cn1 showed an AC50 viability (CU-ACC1 [1]) of 9.34 µM, an AC50 viability (CU-ACC2 [2]) of 4.68 µM and an AC50 viability (NCI-H295R [3]) of 2.63 µM. For the same compound, the “area under concentration-response curve” value (CU-ACC1 [4]) was 400, the “area under concentration-response curve” value (CU-ACC2 [5]) was 539 and the “area under concentration-response curve” value (NCI-H295R [6]) was 449.

C[C@@H](Oc1cc(-n2cnc3ccc(CN4CCN(C)CC4)cc32)sc1C(N)=O)c1ccccc1C(F)(F)F showed an AC50 viability (CU-ACC1 [1]) of 11.8 µM, an AC50 viability (CU-ACC2 [2]) of 16.6 µM and an AC50 viability (NCI-H295R [3]) of 11.8 µM. For the same compound, the “area under concentration-response curve” value (CU-ACC1 [4]) was 471, the “area under concentration-response curve” value (CU-ACC2 [5]) was 540 and the “area under concentration-response curve” value (NCI-H295R [6]) was 446.

NCCCC[C@H](NC(=O)[C@@H](NC(=O)[C@H](Cc1c[nH]c2ccccc12)NC(=O)[C@H](CCCCN)NC(=O)[C@H](CCCCN)NC(=O)[C@H](Cc1c[nH]c2ccccc12)NC(=O)[C@H](Cc1c[nH]c2ccccc12)NC(=O)[C@H](CCCCN)NC(=O)[C@@H](N)CCCCN)C(c1ccccc1)c1ccccc1)C(N)=O gave an AC50 viability (CU-ACC1 [1]) of 10.5 µM, an AC50 viability (CU-ACC2 [2]) of 3.72 µM and an AC50 viability (NCI-H295R [3]) of 9.34 µM. For the same compound, the “area under concentration-response curve” value (CU-ACC1 [4]) was 301, the “area under concentration-response curve” value (CU-ACC2 [5]) was 301 and the “area under concentration-response curve” value (NCI-H295R [6]) was 310.

Compound C[N]1C=NC=C1C(N)(C2=CC=C(Cl)C=C2)C3=CC\4=C(C=C3)N(C)C(=O)\C=C4C5=CC(=CC=C5)Cl (configuration not stated) has an AC50 viability (CU-ACC1 [1]) of 11.8 µM, an AC50 viability (CU-ACC2 [2]) of 11.8 µM and an AC50 viability (NCI-H295R [3]) of 6.61 µM. The “area under concentration-response curve” value (CU-ACC1 [4]) was 336, the “area under concentration-response curve” value (CU-ACC2 [5]) was 298 and the “area under concentration-response curve” value (NCI-H295R [6]) was 397.

Compound CCN1CCN(Cc2ccc(Nc3ncc(F)c(-c4cc(F)c5nc(C)n(C(C)C)c5c4)n3)nc2)CC1 has an AC50 viability (CU-ACC1 [1]) of 18.6 µM, an AC50 viability (CU-ACC2 [2]) of 8.33 µM and an AC50 viability (NCI-H295R [3]) of 18.6 µM. For the same compound, the “area under concentration-response curve” value (CU-ACC1 [4]) was 463, the “area under concentration-response curve” value (CU-ACC2 [5]) was 362 and the “area under concentration-response curve” value (NCI-H295R [6]) was 480.
